From paper PMC4593031, “Azobenzene Modified Imidacloprid Derivatives as Photoswitchable Insecticides: Steering Molecular Activity in a Controllable Manner” (Scientific Reports, 2015)
Several values for one entry are separate records, joined by “and”; a condition that tells them apart may be missing. Identical values can stand only once. Like-named read-outs stand apart in the source and are kept apart here.

Experiments:
[1] = UV/Vis absorption of photoisomers; format: physicochemical; conditions: for λmax n-π* (cis): cis isomer; for λmax π-π* (trans): trans isomer
Description: The photoswitchable behaviors of AMIs at room temperature were characterized by UV/Vis absorption, NMR spectroscopy and HPLC studies. […] Upon irradiation with ultraviolet (365 nm), a gradual intensity decrease at 327 nm and increase at 410–500 nm was detected corresponding to the π–π* and n–π* transition band, respectively (Fig. 3B). The reverse spectral changes were observed upon irradiation at 436 nm (data not shown). All the other compounds gave the similar spectral changes when illuminated with light. The proportions of E/Z isomer at the photostationary states before and after irradiation were determined by HPLC analysis (Table 1). Most of the compounds could produced more than 80% cis isomers upon irradiation. […] The photoisomerization of AMI-10 was further identified by ^1H NMR spectroscopy with the notable appearance of two double peaks at δ 7.25 and 6.85, respectively (Supplementary Fig. S1 online).
Varian Cary 100 UV-vis spectrophotometer was used for obtaining absorption (UV-Vis) spectra. The solutions of compounds were irradiated with a UV lamp (365 nm). The cis to trans photoisomeriation were performed with a light-emitting diode (blue light, 450 nm). The corresponding UV-Vis spectrums were collected in supplmentary files. The photostationary states were determined by high performance liquid chromatography (HPLC) measurements and the trans/cis ratios were calculated at the isosbestic points.

house fly brain nAChR = assay: nAChR binding in vitro, competitive inhibition of [3H]NMI binding; conditions: 1 nM [3H]NMI, house fly head membranes, read-out: Musca domestica in vitro IC50, [3H]NMI
Protocol: Tritium labeled nitromethylene analogue of IMI ([^3H]NMI) is a unique reporter for monitoring nAChR binding not only in vitro but also in vivo due to its extremely high binding potency. Here, the in vitro interaction of AMIs with house fly brain nAChR was measured by competitive inhibition of [^3H]NMI binding (Table 2). Photoisomers of AMI-1, 2, 5, and 6 had very poor ability to displacing [^3H]NMI binding (IC50 > 2000 nM) leading to difficulty for difference judgement. […] A 4-fold difference was achieved on AMI-4 and 10 upon photoirradiation. Compounds AMI-9 or AMI-10 have some similarities with the bis-IMI derivatives disclosed by Kagabu et al.[49][50][51]. […] Among various spacers investigated, the heptamethylene or furan-2,5-dimethylene was the optimal bridge. The N-PhN=NPh-N lengths for trans and cis isomers of AMI-9 or AMI-10 are about 12.29 Ǻ and 6.82 Ǻ or 12.59 Ǻ and 8.14 Ǻ, respectively. While for the bis-IMI linked by heptamethylene, the distance is 9.96 Ǻ, close to that of cis-AMI-10. The shorter or longer distance of the linker may decrease the activity. Furthermore, the lack of heteroatom in the AB linker which is important for stabilizing the interaction with the receptor further attenuated the activity.
House fly heads were collected after the fly adults frozen with liquid nitrogen were broken into body parts. Then the heads were homogenized in 0.1 mM EDTA, 0.32 M sucrose and 100 mM sodium phosphate (pH 7.4). The homogenate was treated by filtering through four layers of 64-μm mesh nylon screen. After centrifuging at 500 g for 30 min, the supernatant was collected and again filtered through using the method above. After centrifuging at 25,000 g for 60 min at 4 °C, the pellet was resuspended in binding buffer (mixture of 50 mM sodium chloride and 10 mM sodium phosphate, pH 7.4). These brain membranes were used fresh or stored for up to several weeks at −80 °C. Then 1 nM [^3H]NMI, varying concentrations of neonicotinoids and 300–500 μg membrane protein in a final volume of 500 μL was incubated at 22 °C for 60 min. The reaction mixture was filtered through Whatman GF/B glass-fiber filters prewetted by binding buffer using a Brandel M-24R Harvester (Gaithersburg, MD) to quantitate the bound [^3H]NMI, followed by two rinses each with binding buffer (5 mL) and final liquid scintillation. Nonspecific binding was determined with unlabeled NMI (20 μM). Specific binding was about 80–90% of total binding. The percentage inhibition was determined from two (compounds AMI-1, AMI-2, AMI-5, AMI-6 and azobenzene whose activities were extremely low) or three separate experiments each with triplicate samples. Half maximal inhibitory concentration (IC50) were determined by nonlinear regression analysis for logarithm of inhibitor concentration versus probit percentage inhibition.

[2] = tested on: house fly (Musca domestica); assay: Insecticidal test for house fly by intrathoracic injection; format: in vivo; conditions: for Musca domestica in vivo LD50: intrathoracic injection, mortality at 24 h
Protocol: The ability of azobenzene to regulate insecticidal activities remains unexplored. To better understand the activity changes induced by light, the efficacy before and after irradiation was tested by leaf-dip method for cowpea aphid (Aphis craccivora) and intrathoracic injection against house fly (Musca domestica)[46][47]. Against cowpea aphid, all the isomers had low activity and no significant difference was observed between two photo isomers (Supplementary Table S1 online). We attribute this observation to the poor solubility at the testing concentrations.
Thus, injection of chemicals into house fly was employed to evaluate their intrinsic activity (Table 2). House fly is a most commonly used indicator for both in vitro and in vivo insecticidal activity. Replacement of chloropyridinyl in IMI with AB leads to a deleterious effect on in vivo activity to house fly as exemplified by analogues AMI-1, 2 and 5 with LD50 values of more than 10 μg/g irrespective of irradiation or not. […] No obvious difference was observed between the trans and cis form of AMI-9.
House fly adults were anesthetized with carbon dioxide for 10 min and then were treated with the AMIs dissolved in distilled water or 10% DMSO aqueous solution by intrathoracic injection (0.4 μL for each fly). Twenty flies were treated for each dosage with duplicate samples. The mortality rates were counted twenty-four hours after treatment. Each treatment had three repetitions and the data subjected to probit analysis.

[3] = Photoswitching cycles / constant irradiation (fatigue resistance); format: physicochemical; conditions: multiple cycles of photoisomerization or constant irradiation at 365 nm for 1 h

Row | Compound | λmax n-π* (cis) [1] | λmax π-π* (trans) [1] | IC50 (house fly brain nAChR; irradiated) | IC50 (house fly brain nAChR; nonirradiated) | Musca domestica in vivo LD50 ([2]; irradiated) | Musca domestica in vivo LD50 ([2]; nonirradiated) | poisoning sign in house fly ([2]; under the tested concentrations) | photo bleaching or photo-oxidation [3] | Musca domestica in vivo LD50 ([2]; irradiated, listed as 5) | Musca domestica in vivo LD50 ([2]; nonirradiated, listed as 5)
1 | O=[N+]([O-])/N=C1\N(Cc2ccc(Cl)nc2)CCN1Cc1cccc(/N=N/c2cccc(CN3CCN(Cc4ccc(Cl)nc4)/C3=N\[N+](=O)[O-])c2)c1 [AMI-9] | 429 nm | 319 nm | 1.34 ± 0.154 µM | 1.16 ± 0.141 µM | 3.0 ± 0.6 µg/g | 5.1 ± 0.8 µg/g | – | – | – | –
2 | c1ccc(/N=N/c2ccccc2)cc1 [azobenzene] | – | – | > 2 µM | > 2 µM | >10 µg/g | >10 µg/g | no significant poisoning sign was detected | – | – | –
3 | (E)-1-(3-(((E)-2-(nitromethylene)imidazolidin-1-yl)methyl)phenyl)-2-(3-(((Z)-2-(nitromethylene)imidazolidin-1-yl)methyl)phenyl)diazene [AMI-7] | 432 nm | 321 nm | 1.73 ± 0.135 µM | 1.86 ± 0.151 µM | 5.3 ± 1.0 µg/g | 7.9 ± 1.1 µg/g | – | – | – | –
4 | O=[N+]([O-])NC1=NCCN1Cc1ccc(Cl)nc1 [IMI, imidacloprid] | – | – | 0.0288 ± 0.004 µM | 0.0288 ± 0.004 µM | 0.05 ± 0.01 µg/g | 0.05 ± 0.01 µg/g | – | – | – | –
5 | O=[N+]([O-])/N=C1/N(Cc2ccc(/N=N/c3ccccc3)cc2)CCN1Cc1ccc(Cl)nc1 [AMI-4] | 433 nm | 322 nm | 1.22 ± 0.098 µM | 0.818 ± 0.092 µM | 9.2 ± 1.6 µg/g | 6.5 ± 1.0 µg/g | – | – | – | –
6 | O=[N+]([O-])/N=C1\N(Cc2ccc(Cl)nc2)CCN1Cc1cccc(/N=N/c2ccccc2)c1 [AMI-3] | 431 nm | 317 nm | 1.14 ± 0.106 µM | 0.25 ± 0.022 µM | 4.4 ± 0.7 µg/g | 3.9 ± 0.5 µg/g | – | – | – | –
7 | O=[N+]([O-])N=C1N(Cc2ccc(N=Nc3ccc(CN4CCN(Cc5ccc(Cl)nc5)C4=N[N+](=O)[O-])cc3)cc2)CCN1Cc1ccc(Cl)nc1 [AMI-10] | 434 nm | 325 nm | 0.112 ± 0.013 µM | 0.466 ± 0.055 µM | 0.5 µg/g and 0.5 ± 0.08 µg/g | 2.8 µg/g and 2.8 ± 0.4 µg/g | – | No photo bleaching or photo-oxidation could be observed | – | –
8 | (Z)-2-(nitromethylene)-1-(2-((E)-phenyldiazenyl)benzyl)imidazolidine [AMI-5] | 436 nm | 320 nm | > 2 µM | > 2 µM | >10 µg/g | >10 µg/g | – | – | more than 10 μg/g | more than 10 μg/g
9 | 2-chloro-5-(((E)-2-(nitromethylene)-3-(2-((E)-phenyldiazenyl)benzyl)imidazolidin-1-yl)methyl)pyridine [AMI-6] | 433 nm | 322 nm | > 2 µM | > 2 µM | >10 µg/g | >10 µg/g | – | – | – | –
